# Results reported in BindingDB's records for doi:10.1038/sj.bjp.0702658 (Universit&Agrove, 1999).
# Target: T1, Melatonin receptor type 1B (Homo sapiens, UniProt P49286)
# T1 sequence (P49286 whole entry): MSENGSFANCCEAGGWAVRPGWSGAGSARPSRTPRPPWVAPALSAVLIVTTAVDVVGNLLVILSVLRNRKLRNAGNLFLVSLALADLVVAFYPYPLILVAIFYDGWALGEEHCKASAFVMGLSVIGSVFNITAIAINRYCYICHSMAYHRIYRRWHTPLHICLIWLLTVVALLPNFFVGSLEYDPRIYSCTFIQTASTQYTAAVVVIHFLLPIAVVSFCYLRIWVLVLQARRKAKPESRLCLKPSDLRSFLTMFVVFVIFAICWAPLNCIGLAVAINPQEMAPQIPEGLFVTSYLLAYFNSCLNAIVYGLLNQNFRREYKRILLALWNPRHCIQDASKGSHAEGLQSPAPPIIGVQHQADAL
row,SMILES,Ki [nM]
1,O=C(NCCc1c(-c2ccccc2)[nH]c2ccccc12)C1CCC1 [N-CBCPT],85.1
2,CC(=O)NCCc1c[nH]c2ccccc12 [N-Acetyltryptamine],64.6
3,CC(=O)NCCc1c(Cc2ccccc2)[nH]c2ccccc12 [CAS_117946-91-5],11.2
4,"COc1ccc2[nH]c(-c3ccccc3)c(CCNC(C)=O)c2c1 [Melatonin,2-Phenyl]",0.03
5,"CC(=O)NCCc1c[nH]c2ccc(O)cc12 [N-Acetyltryptamine,5-Hydroxy]",339
